Test results: US20220175768A1, “FGFR TYROSINE KINASE INHIBITORS FOR THE TREATMENT OF UROTHELIAL CARCINOMA” (Janssen Pharmaceutica NV, priority 2019, published 2022)

Columns and labels:
serum phosphate = experiment: Pharmacodynamics: serum phosphate level; format: in vivo, human; conditions: consequence of FGFR inhibition
Source text: To manage phosphate elevation, phosphate binders were permitted. Avoid concomitant use with agents that can alter serum phosphate levels before the initial dose increase period based on serum phosphate levels.

clinical = conditions: human, in vivo
[1] = human, in vivo
in vitro = in vitro ADME; conditions: human
[2] = Excretion following a single oral dose of radiolabeled erdafitinib; format: in vivo, human

Compound: COc1cc(OC)cc(N(CCNC(C)C)c2ccc3ncc(-c4cnn(C)c4)nc3c2)c1 [erdafitinib, N-(3,5-dimethoxy-phenyl)-N′-(1-methylethyl)-N-[3-(1-methyl-1H-pyrazol-4-yl)quinoxalin-6-yl]ethane-1,2-diamine]
- Effect on serum phosphate level (serum phosphate): increased serum phosphate level
- Vd (clinical): 29 L
- half-life (clinical): 59 h
- Circulating metabolites in plasma [1]: no circulating metabolites
- Exposure (Cmax and AUC) versus dose [1]: increased proportionally
- Mean total apparent clearance (CL/F) [1]: 0.362 L/h
- Time to steady state [1]: 2 weeks
- fraction unbound (in vitro): 0.002
- Dose recovered in feces [2]: approximately 69%
- Dose recovered in feces as unchanged [2]: 19%
- Dose recovered in urine [2]: 19%
- Dose recovered in urine as unchanged [2]: 13%
